# In paper PMC3690672 (European journal of nuclear medicine and molecular imaging, 2009):
# Values joined by “and” are separate entries in the source; they are usually repeats but may differ in a detail not shown here. Equal values may be shown once. Where a name gives a salt, the structure may show the parent alone. Read-outs that look alike come from different tables or passages of the source.
# How the values were obtained:
# [1] = system: multidrug resistance-associated proteins (MRPs), such as MRP1; conditions: cited from earlier work
# [2] = Tariquidar or elacridar concentrations in plasma and brain by LC/MS; format: in vivo; conditions: rat, 5 mg/kg; for concentration at 180 min: intravenous
# [3] = target: T1, P-glycoprotein (P-gp) at the blood-brain barrier (Rattus norvegicus, UniProt Q6PSM0); conditions: for DV (Logan) of VPM / DV of VPM (2T4K model) / K1 of VPM (2T4K model) / k2 of VPM (2T4K model) / k3 of VPM (2T4K model) / k4 of VPM (2T4K model): whole brain, PET 120 min after, mean±SD
# [4] = system: P-glycoprotein (P-gp) at the blood-brain barrier; format: in vivo, rat; conditions: tariquidar 15 mg/kg or elacridar 5 mg/kg at 60 min after radiotracer injection
# [5] = target: T1, P-glycoprotein (P-gp) at the blood-brain barrier; assay: in vivo
# [6] = Hill fit of whole-brain DV vs inhibitor dose
# T1 sequence (Q6PSM0 1-1272): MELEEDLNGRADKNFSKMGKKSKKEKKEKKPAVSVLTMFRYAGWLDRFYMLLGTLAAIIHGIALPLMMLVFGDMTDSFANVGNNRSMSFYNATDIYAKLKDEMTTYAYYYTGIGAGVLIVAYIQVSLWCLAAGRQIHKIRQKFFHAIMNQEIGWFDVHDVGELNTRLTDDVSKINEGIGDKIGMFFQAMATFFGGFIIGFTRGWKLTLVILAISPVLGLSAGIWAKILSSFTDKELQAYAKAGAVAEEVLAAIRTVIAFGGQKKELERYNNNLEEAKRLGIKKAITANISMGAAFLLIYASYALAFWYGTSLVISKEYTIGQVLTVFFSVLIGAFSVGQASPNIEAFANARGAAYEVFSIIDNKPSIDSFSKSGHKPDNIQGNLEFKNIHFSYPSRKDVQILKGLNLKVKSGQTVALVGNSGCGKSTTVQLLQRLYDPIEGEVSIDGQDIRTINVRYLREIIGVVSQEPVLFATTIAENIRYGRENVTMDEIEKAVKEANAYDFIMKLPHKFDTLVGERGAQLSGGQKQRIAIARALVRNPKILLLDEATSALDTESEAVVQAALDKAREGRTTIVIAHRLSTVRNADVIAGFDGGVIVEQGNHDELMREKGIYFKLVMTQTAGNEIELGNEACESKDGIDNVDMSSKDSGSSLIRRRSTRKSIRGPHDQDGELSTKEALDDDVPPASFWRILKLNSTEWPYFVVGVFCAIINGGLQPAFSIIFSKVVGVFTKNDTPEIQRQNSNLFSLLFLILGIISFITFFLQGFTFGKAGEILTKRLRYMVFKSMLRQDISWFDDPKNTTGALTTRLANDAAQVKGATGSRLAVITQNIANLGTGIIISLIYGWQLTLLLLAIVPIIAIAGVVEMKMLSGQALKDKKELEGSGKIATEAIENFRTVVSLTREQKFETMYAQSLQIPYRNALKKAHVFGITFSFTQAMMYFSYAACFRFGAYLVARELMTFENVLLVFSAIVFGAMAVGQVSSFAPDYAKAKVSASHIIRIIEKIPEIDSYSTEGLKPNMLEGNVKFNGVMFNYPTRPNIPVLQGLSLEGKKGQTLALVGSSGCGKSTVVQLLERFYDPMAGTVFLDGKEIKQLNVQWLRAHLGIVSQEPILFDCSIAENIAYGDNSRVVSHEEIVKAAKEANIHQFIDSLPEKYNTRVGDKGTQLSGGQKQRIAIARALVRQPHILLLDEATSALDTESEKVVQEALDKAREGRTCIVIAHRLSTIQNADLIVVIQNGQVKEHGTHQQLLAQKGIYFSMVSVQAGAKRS
smiles,measurement,setting,value
"COc1cc2c(cc1OC)CN(CCc1ccc(NC(=O)c3cccc4c(=O)c5cccc(OC)c5[nH]c34)cc1)CC2 [elacridar, elacridar hydrochloride]","Inhibition of MRPs, such as MRP1",[1],do not inhibit
same,concentration at 180 min,[2]; brain,5.19 ± 1.42 µg/mL
same,Kp at 180 min,"[2]; brain, iv",16.8 ± 5.8
same,concentration at 180 min,[2]; plasma,0.316 ± 0.061 µg/mL
same,DVmax (maximum effect),[3]; [6],11.4±0.7 ml·ml^−1
same,Hill factor n,[3]; [6],5.2±2.8
same,Maximum increase in VPM brain distribution (DV) over baseline,"[3]; at maximum effective doses, rat brain",up to 11 fold
same,Whole-brain DV increase (factor) as compared to baseline scans,[3]; inhibitor 0.3 mg/kg,1.0±0.6
same,Whole-brain DV increase (factor) as compared to baseline scans,[3]; inhibitor 1 mg/kg,3.5±1.5
same,Whole-brain DV increase (factor) as compared to baseline scans,[3]; inhibitor 2 mg/kg,9.4±1.5
same,Whole-brain DV increase (factor) as compared to baseline scans,[3]; inhibitor 5 mg/kg,8.9±1.4
same,Whole-brain DV increase (factor) as compared to baseline scans,[3]; inhibitor 7.5 mg/kg,11.3±0.2
same,DV (Logan) of VPM,[3]; inhibitor 0.3 mg/kg i.v.,1.22±0.51 (2.9) ml·ml^−1
same,DV of VPM (2T4K model),[3]; inhibitor 0.3 mg/kg i.v.,1.28±0.54 (3.1) ml·ml^−1
same,K1 of VPM (2T4K model),[3]; inhibitor 0.3 mg/kg i.v.,0.13±0.10 (16.5) ml·ml^−1·min^−1
same,k2 of VPM (2T4K model),[3]; inhibitor 0.3 mg/kg i.v.,0.29±0.06 (36.5) min^−1
same,k3 of VPM (2T4K model),[3]; inhibitor 0.3 mg/kg i.v.,0.14±0.02 (41.4) min^−1
same,k4 of VPM (2T4K model),[3]; inhibitor 0.3 mg/kg i.v.,0.07±0.01 (16.7) min^−1
same,DV (Logan) of VPM,[3]; inhibitor 1 mg/kg i.v.,4.47±1.51 (0.9) ml·ml^−1
same,DV of VPM (2T4K model),[3]; inhibitor 1 mg/kg i.v.,4.49±1.51 (2.9) ml·ml^−1
same,K1 of VPM (2T4K model),[3]; inhibitor 1 mg/kg i.v.,0.57±0.19 (18.1) ml·ml^−1·min^−1
same,k2 of VPM (2T4K model),[3]; inhibitor 1 mg/kg i.v.,0.33±0.10 (78.9) min^−1
same,k3 of VPM (2T4K model),[3]; inhibitor 1 mg/kg i.v.,0.29±0.11 (93.2) min^−1
same,k4 of VPM (2T4K model),[3]; inhibitor 1 mg/kg i.v.,0.19±0.06 (33.3) min^−1
same,DV (Logan) of VPM,[3]; inhibitor 2 mg/kg i.v.,11.72±1.47 (0.6) ml·ml^−1
same,DV of VPM (2T4K model),[3]; inhibitor 2 mg/kg i.v.,12.00±1.49 (2.4) ml·ml^−1
same,K1 of VPM (2T4K model),[3]; inhibitor 2 mg/kg i.v.,0.92±0.16 (7.2) ml·ml^−1·min^−1
same,k2 of VPM (2T4K model),[3]; inhibitor 2 mg/kg i.v.,0.18±0.06 (42.2) min^−1
same,k3 of VPM (2T4K model),[3]; inhibitor 2 mg/kg i.v.,0.29±0.09 (68.5) min^−1
same,k4 of VPM (2T4K model),[3]; inhibitor 2 mg/kg i.v.,0.22±0.03 (21.1) min^−1
same,DV (Logan) of VPM,[3]; inhibitor 5 mg/kg i.v.,11.16±1.44 (1.1) ml·ml^−1
same,DV of VPM (2T4K model),[3]; inhibitor 5 mg/kg i.v.,11.40±1.45 (3.8) ml·ml^−1
same,K1 of VPM (2T4K model),[3]; inhibitor 5 mg/kg i.v.,0.93±0.26 (17.0) ml·ml^−1·min^−1
same,k2 of VPM (2T4K model),[3]; inhibitor 5 mg/kg i.v.,0.22±0.06 (58.8) min^−1
same,k3 of VPM (2T4K model),[3]; inhibitor 5 mg/kg i.v.,0.28±0.05 (79.7) min^−1
same,k4 of VPM (2T4K model),[3]; inhibitor 5 mg/kg i.v.,0.16±0.01 (35.4) min^−1
same,DV (Logan) of VPM,[3]; inhibitor 7.5 mg/kg i.v.,14.20±0.13 (0.4) ml·ml^−1
same,DV of VPM (2T4K model),[3]; inhibitor 7.5 mg/kg i.v.,14.55±0.06 (2.6) ml·ml^−1
same,K1 of VPM (2T4K model),[3]; inhibitor 7.5 mg/kg i.v.,0.98±0.08 (6.4) ml·ml^−1·min^−1
same,k2 of VPM (2T4K model),[3]; inhibitor 7.5 mg/kg i.v.,0.15±0.02 (43.5) min^−1
same,k3 of VPM (2T4K model),[3]; inhibitor 7.5 mg/kg i.v.,0.25±0.07 (55.4) min^−1
same,k4 of VPM (2T4K model),[3]; inhibitor 7.5 mg/kg i.v.,0.22±0.04 (30.3) min^−1
same,Time of peak VPM brain uptake (maximum effect) after inhibitor injection,[4],30 ± 5 min and 30 min
same,EC50 at 180 min,[5],0.115 ± 0.0222 mg/L
same,ED50 at 120 min,"[5]; Sprague-Dawley, iv",1.2 ± 0.1 mg/kg
